According to patent US20260256792A1, “TREATMENT OF CHRONIC SPONTANEOUS URTICARIA BY ADMINISTERING (R)-2-[3-[4-AMINO-3-(2-FLUORO-4-PHENOXY-PHENYL)PYRAZOLO[3,4-D]PYRIMIDIN-1-YL]PIPERIDINE-1-CARBONYL]-4-METHYL-4-[4-(OXETAN-3-YL)PIPERAZIN-1-YL]PENT-2-ENENITRILE” (priority 2023, published 2026):

Tested on: moderate-to-severe chronic spontaneous urticaria (CSU)
Test: Phase 2 CSU study: urticaria activity score over 7 days (UAS7)
Type: in vivo, human
Design: key to UAS7 Median / UAS7 Change from baseline Median / UAS7 change from baseline, Q1 / UAS7 change from baseline, Q3 / UAS7 change from baseline, Max / UAS7 Change from baseline LS Mean (SE): UAS7 points; daily UAS score ranges 0–6 points/day, over 7 days
Text: The study comprises a 12 week, randomized, double-blind, placebo-controlled, multi-center, dose-ranging efficacy and safety phase, followed by a 40 week open label extension (OLE) phase (see FIG. 1). The study consists of three phases and an optional OLE phase. […] Clinically, CSU is characterized by the spontaneous and recurrent appearance of pruritic hives. The proposed primary endpoints were the UAS7 at Week 12 in EU and EU reference countries and the ISS7 in the US. Regardless of where a participant was from, all assessments were the same. The UAS7 score is a composite score containing both the HSS7 and the ISS7. This allowed a global assessment of the two key components of urticaria: hives and itch. […] The UAS is a validated PRO measure. […] The daily UAS scores range from 0 to 6 point/day. […] Patients were to complete the UAS using the e-diary. […] The following secondary endpoints were to be analyzed using the same approach as for the primary endpoint: • Change from baseline in UAS7 at Week 4 • Change from baseline in UAS7 at Week 12 (for US and US reference countries) • Change from baseline in ISS7 at Week 12 (except US and US reference countries) • Change from baseline in HSS7 at Week 12 The following responder secondary endpoints were to be analyzed using the Cochran-Mantel-Haenszel test adjusted by region: • Proportion of participants with UAS7<6 at Week 12 • Proportion of participants with UAS7=0 at Week 12 Participants who received selected prohibited medications and/or rescue medications were to be considered as non-responders for time points after the medication usage. For other participants, all available data including those collected during the off-treatment period were to be used to determine the responder/non-responder status. Missing data were to be considered as non-responders.

[1] = Week 10, 400 mg TID, ITT population
[2] = Week 10, 400 mg TID, Omalizumab-Naïve
[3] = Week 10, 400 mg TID, Prior Omalizumab Use
[4] = Week 10, 400 mg TID, omalizumab-naive participants
[5] = Week 11, 400 mg BID, ITT population
[6] = Week 11, 400 mg BID, Omalizumab-Naïve
[7] = Week 11, 400 mg BID, Prior Omalizumab Use
[8] = Week 11, 400 mg BID, omalizumab-naive participants
[9] = Week 11, 400 mg QPM, ITT population
[10] = Week 11, 400 mg QPM, Omalizumab-Naïve
[11] = Week 11, 400 mg QPM, Prior Omalizumab Use
[12] = Week 11, 400 mg QPM, omalizumab-naive participants
[13] = Week 11, 400 mg TID, ITT population
[14] = Week 11, 400 mg TID, Omalizumab-Naïve

CC(C)(C=C(C#N)C(=O)N1CCC[C@@H](n2nc(-c3ccc(Oc4ccccc4)cc3F)c3c(N)ncnc32)C1)N1CCN(C2COC2)CC1 [rilzabrutinib, (R)-2-[3-[4-amino-3-(2-fluoro-4-phenoxy-phenyl)pyrazolo[3,4-d]pyrimidin-1-yl]piperidine-1-carbonyl]-4-methyl-4-[4-(oxetan-3-yl)piperazin-1-yl]pent-2-enenitrile]
Non-responder, UAS7 reduction from baseline of 10 points or more [1]: 14 (34.1) n (%)
OR for rilzabrutinib vs. placebo, UAS7 reduction of 10 points or more [1]: 2.018
RRD (%) for rilzabrutinib vs. placebo, UAS7 reduction of 10 points or more [1]: 15.7 %
Responder, UAS7 reduction from baseline of 10 points or more [1]: 27 (65.9) n (%)
UAS7 Change from baseline Median [2]: −20.00
UAS7 Mean (SD) [2]: 12.61 (9.89)
UAS7 Median [2]: 12.83
UAS7 Percent change from baseline Mean (SD) [2]: −58.08 (31.82) %
UAS7 Percent change from baseline Median [2]: −59.49%
UAS7 Change from baseline Mean (SD) [3]: −25.19 (15.27)
UAS7 Change from baseline Median [3]: −25.08
UAS7 Mean (SD) [3]: 7.83 (11.43)
UAS7 Median [3]: 4.00
UAS7 Percent change from baseline Mean (SD) [3]: −73.42 (30.92) %
UAS7 Percent change from baseline Median [3]: −84.09%
Non-responder, UAS7 reduction from baseline of 10 points or more [4]: 12 (34.3) n (%)
OR for rilzabrutinib vs. placebo, UAS7 reduction of 10 points or more [4]: 2.327
RRD (%) for rilzabrutinib vs. placebo, UAS7 reduction of 10 points or more [4]: 19.8 %
Responder, UAS7 reduction from baseline of 10 points or more [4]: 23 (65.7) n (%)
Non-responder, UAS7 reduction from baseline of 10 points or more [5]: 19 (46.3) n (%)
OR for rilzabrutinib vs. placebo, UAS7 reduction of 10 points or more [5]: 1.009
RRD (%) for rilzabrutinib vs. placebo, UAS7 reduction of 10 points or more [5]: 0.2 %
Responder, UAS7 reduction from baseline of 10 points or more [5]: 22 (53.7) n (%)
UAS7 Change from baseline Mean (SD) [6]: −14.86 (11.83)
UAS7 Change from baseline Median [6]: −19.00
UAS7 Mean (SD) [6]: 15.06 (13.80)
UAS7 Percent change from baseline Mean (SD) [6]: −51.82 (39.20) %
UAS7 Percent change from baseline Median [6]: −57.14%
UAS7 Change from baseline Mean (SD) [7]: −20.43 (19.00)
UAS7 Change from baseline Median [7]: −25.00
UAS7 Mean (SD) [7]: 11.57 (15.45)
UAS7 Median [7]: 2.00
UAS7 Percent change from baseline Mean (SD) [7]: −59.15 (51.57) %
UAS7 Percent change from baseline Median [7]: −92.59%
Non-responder, UAS7 reduction from baseline of 10 points or more [8]: 16 (45.7) n (%)
OR for rilzabrutinib vs. placebo, UAS7 reduction of 10 points or more [8]: 1.183
RRD (%) for rilzabrutinib vs. placebo, UAS7 reduction of 10 points or more [8]: 4.4 %
Responder, UAS7 reduction from baseline of 10 points or more [8]: 19 (54.3) n (%)
Non-responder, UAS7 reduction from baseline of 10 points or more [9]: 19 (50.0) n (%)
OR for rilzabrutinib vs. placebo, UAS7 reduction of 10 points or more [9]: 0.945
RRD (%) for rilzabrutinib vs. placebo, UAS7 reduction of 10 points or more [9]: −1.3 %
Responder, UAS7 reduction from baseline of 10 points or more [9]: 19 (50.0) n (%)
UAS7 Change from baseline Mean (SD) [10]: −11.28 (9.60)
UAS7 Change from baseline Median [10]: −11.00
UAS7 Mean (SD) [10]: 21.17 (11.16)
UAS7 Median [10]: 20.00
UAS7 Percent change from baseline Mean (SD) [10]: −35.34 (30.18) %
UAS7 Percent change from baseline Median [10]: −34.19%
UAS7 Change from baseline Mean (SD) [11]: −23.00 (NC)
UAS7 Change from baseline Median [11]: −23.00
UAS7 Mean (SD) [11]: 18.00 (NC)
UAS7 Median [11]: 18.00
UAS7 Percent change from baseline Mean (SD) [11]: −56.10 (NC) %
UAS7 Percent change from baseline Median [11]: −56.10%
Non-responder, UAS7 reduction from baseline of 10 points or more [12]: 19 (51.4) n (%)
OR for rilzabrutinib vs. placebo, UAS7 reduction of 10 points or more [12]: 0.946
RRD (%) for rilzabrutinib vs. placebo, UAS7 reduction of 10 points or more [12]: −1.3 %
Responder, UAS7 reduction from baseline of 10 points or more [12]: 18 (48.6) n (%)
Non-responder, UAS7 reduction from baseline of 10 points or more [13]: 14 (34.1) n (%)
OR for rilzabrutinib vs. placebo, UAS7 reduction of 10 points or more [13]: 1.624
RRD (%) for rilzabrutinib vs. placebo, UAS7 reduction of 10 points or more [13]: 10.3 %
Responder, UAS7 reduction from baseline of 10 points or more [13]: 27 (65.9) n (%)
UAS7 Change from baseline Median [14]: −17.00
UAS7 Median [14]: 13.00
UAS7 Percent change from baseline Mean (SD) [14]: −56.01 (34.22) %
UAS7 Percent change from baseline Median [14]: −60.00%
